In PubChem BioAssay AID330 (DTP/NCI, 2004):
Several values for one entry are separate records, joined by “and”; a condition that tells them apart may be missing. Identical values can stand only once. Inconclusive results and toxic doses are left out. How the source made its calls: active means survival T/C of 150% or more; inactive means T/C below 125% in these data.

Test system: P388 leukemia ip, CD2F1 mice, survival T/C
Assay: NCI In Vivo Anticancer Drug Screen. Data for tumor model P388 Leukemia (intraperitoneal) in CD2F1 (CDF1) mice
Conditions: endpoint: median survival time, higher = longer survival
How it was run: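 Mice carrying the transplanted tumor received test compound or vehicle. Survival was recorded in each group, and the value is the treated-group measurement divided by that of the vehicle-treated control group.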

[1] = dose: 100.0 mg/kg/injection, schedule: Q01DX009 (ip), vehicle: saline with Tween-80
[2] = dose: 60.0 mg/kg/injection, schedule: Q01DX005 (ip), vehicle: saline with Tween-80
[3] = dose: 120.0 mg/kg/injection, schedule: Q01DX005 (ip), vehicle: saline with Tween-80
[4] = dose: 240.0 mg/kg/injection, schedule: Q01DX005 (ip), vehicle: saline with Tween-80
[5] = dose: 50.0 mg/kg/injection, schedule: Q01DX005 (ip), vehicle: saline with Tween-80
[6] = dose: 100.0 mg/kg/injection, schedule: Q01DX005 (ip), vehicle: saline with Tween-80
[7] = dose: 200.0 mg/kg/injection, schedule: Q01DX005 (ip), vehicle: saline with Tween-80
[8] = dose: 6.25 mg/kg/injection, schedule: Q01DX005 (ip), vehicle: saline with Tween-80
[9] = dose: 12.5 mg/kg/injection, schedule: Q01DX005 (ip), vehicle: saline with Tween-80
[10] = dose: 60.0 mg/kg/injection, schedule: Q01DX005 (ip), vehicle: Klucel (hydroxypropylcellulose) (HPC)
[11] = dose: 120.0 mg/kg/injection, schedule: Q01DX005 (ip), vehicle: Klucel (hydroxypropylcellulose) (HPC)
[12] = dose: 240.0 mg/kg/injection, schedule: Q01DX005 (ip), vehicle: Klucel (hydroxypropylcellulose) (HPC)

Measured: T/C

CC(C)C(=NC1CCCCC1)NC(C)(C)C
inactive: dose: 50.0 mg/kg/injection, schedule: Q01DX009 (ip), vehicle: saline with Tween-80 93 % of control | [1] 99 % of control

CCCC[N+](CCCC)(CCCC)CCCC.O=C([O-])[O-].O=C([O-])[O-].[Co+3].[NH-]CC[NH-]
inactive: dose: 50.0 mg/kg/injection, schedule: Q01DX009 (ip), vehicle: suspension in saline 113 % of control and 123 % of control | dose: 100.0 mg/kg/injection, schedule: Q01DX009 (ip), vehicle: suspension in saline 120 % of control

CC1=CC(C)C/C=C/C2C3OC3(C)C(C)C3C(Cc4c[nH]c5ccccc45)NC(=O)C23C(=O)C=CC(=O)C1O (stereo unspecified)
inactive: dose: 0.2 mg/kg/injection, schedule: Q01DX005 (ip), vehicle: Klucel (hydroxypropylcellulose) (HPC) 102 % of control | dose: 0.4 mg/kg/injection, schedule: Q01DX005 (ip), vehicle: Klucel (hydroxypropylcellulose) (HPC) 97 % of control | dose: 0.8 mg/kg/injection, schedule: Q01DX005 (ip), vehicle: Klucel (hydroxypropylcellulose) (HPC) 106 % of control | dose: 1.6 mg/kg/injection, schedule: Q01DX005 (ip), vehicle: Klucel (hydroxypropylcellulose) (HPC) 107 % of control | dose: 2.0 mg/kg/injection, schedule: Q01DX005 (ip), vehicle: Klucel (hydroxypropylcellulose) (HPC) 109 % of control | dose: 16.0 mg/kg/injection, schedule: Q01DX005 (ip), vehicle: Klucel (hydroxypropylcellulose) (HPC) 117 % of control

Cc1cc(=O)n2[nH]c(-c3ccc(C(C)(C)C)cc3)cc2n1
inactive: [2] 111 % of control | [3] 109 % of control | [4] 93 % of control

CCC1(C=O)NC(=O)NC1=O (stereo unspecified)
inactive: [5] 91 % of control | [6] 95 % of control | [7] 87 % of control

COC(=O)c1ncn(C2CCCCC2)c1N
inactive: [8] 99 % of control | [9] 101 % of control

O=C(NO)C1CCCCC12OCCO2 (stereo unspecified)
inactive: dose: 100.0 mg/kg/injection, schedule: Q04DX002 (ip), vehicle: saline 98 % of control | dose: 200.0 mg/kg/injection, schedule: Q04DX002 (ip), vehicle: saline 101 % of control | dose: 400.0 mg/kg/injection, schedule: Q04DX002 (ip), vehicle: saline 101 % of control

C(=C\c1ccc2ccccc2n1)/c1ccc2c(c1)OCO2
inactive: [1] 105 % of control | dose: 200.0 mg/kg/injection, schedule: Q01DX009 (ip), vehicle: saline with Tween-80 95 % of control | dose: 400.0 mg/kg/injection, schedule: Q01DX009 (ip), vehicle: saline with Tween-80 110 % of control

COc1ccc2c(c1)c(=O)c(C(=O)O)cn2CCCOc1ccc([N+](=O)[O-])cc1
inactive: [10] 88 % of control | [11] 93 % of control | [12] 89 % of control

CCOc1ccccc1N=Nc1c(C)nn(C(N)=S)c1OCC
inactive: [10] 106 % of control | [11] 116 % of control | [12] 115 % of control

Nc1ccc(S(=O)(=O)NCCSSCCNS(=O)(=O)c2ccc(N)cc2)cc1
inactive: [2] 97 % of control | [3] 100 % of control | [4] 105 % of control

CCCn1cc2c3c(cccc31)[C@H]1C[C@@H](C)CN(C)[C@@H]1C2
inactive: dose: 3.12 mg/kg/injection, schedule: Q01DX005 (ip), vehicle: saline with Tween-80 102 % of control and 107 % of control | [8] 100 % of control and 105 % of control and 107 % of control | [9] 102 % of control and 92 % of control and 93 % of control | dose: 25.0 mg/kg/injection, schedule: Q01DX005 (ip), vehicle: saline with Tween-80 98 % of control and 101 % of control | [5] 101 % of control | [6] 104 % of control | [7] 98 % of control

c1ccc(C2CC(c3ccccc3)c3ccccc3O2)cc1 (stereo unspecified)
inactive: dose: 100.0 mg/kg/injection, schedule: Q01DX001 (ip), vehicle: Klucel (hydroxypropylcellulose) (HPC) 87 % of control | dose: 200.0 mg/kg/injection, schedule: Q01DX001 (ip), vehicle: Klucel (hydroxypropylcellulose) (HPC) 90 % of control | dose: 400.0 mg/kg/injection, schedule: Q01DX001 (ip), vehicle: Klucel (hydroxypropylcellulose) (HPC) 96 % of control

O=C(O)c1cscn1.O=C(O)c1cscn1.O=C(O)c1cscn1.O=C(O)c1cscn1.[Cl][Rh][Cl]
inactive: dose: 50.0 mg/kg/injection, schedule: Q01DX005 (ip), vehicle: saline + alcohol 101 % of control | dose: 100.0 mg/kg/injection, schedule: Q01DX005 (ip), vehicle: saline + alcohol 107 % of control | dose: 200.0 mg/kg/injection, schedule: Q01DX005 (ip), vehicle: saline + alcohol 104 % of control
